Values quoted from earlier work, collected in patent US20070213318A1, “C[…] WITH IMPROVED BLOOD-BRAIN BARRIER PE[…] THE TREATMENT OF DISEASES ACCOMPANIED BY COGNITIVE IMPAIRMENT” (priority 2006, published 2007).
Read-outs that look alike come from different tables or passages of the source.

Legend:
human nAChR subtypes = conditions: below the concentration range at which AChE inhibition takes place

Structure (SMILES): COc1ccc2c3c1O[C@H]1C[C@@H](O)C=C[C@@]31CCN(C)C2 [Galanthamine]
- tissue to plasma ratio (T/P) (female rat spleen): ~20
- tissue to plasma ratio (T/P) (male and female rat, kidney): 10-15
- tissue to plasma ratio (T/P) (male and female rat, salivary and adrenal gland): 7-14
- tissue to plasma ratio (T/P) (rat, lung, liver, heart, skeletal muscle and testes): 2-4
- concentrations at which the APL effect is observed (human nAChR subtypes): submicromolar concentrations
